Results as given in patent publication US7858738B2, “Synthetic human peptides and pharmaceutical compositions comprising them for the treatment of systemic lupus erythematosus” (Yeda Research and Development Co., Ltd., priority 2001, dated 2010).

What was measured:
Type in all cases: cell-based
PBL of SLE patients [1] = experiment: Proliferative response of PBL of SLE patients to the human 16/6Id mAb; conditions: for inhibition of the proliferative responses of PBL to the human 16/6Id mAb / inhibition of the proliferative responses of PBL to human 16/6Id mAb: PBL of one SLE patient; for inhibition of the proliferative responses of PBL to the human 16/6Id mAb: FIG. 6; for inhibition of the proliferative responses of PBL to human 16/6Id mAb: FIG. 7, reversed murine peptides as controls; for Percent Inhibition of proliferation of PBL: highest positive inhibition, peptide 50 or 100 μg/well; for Percent Inhibition of proliferation of PBL, Mean ± SD: mean over the 19 responder SLE patients (positive inhibitions, above 50%); for responders whose PBL proliferation was inhibited (inhibition above 50% considered positive): of the 19 responder SLE patients tested
Method: Induction and treatment of experimental SLE. In order to induce experimental SLE, BALB/c mice were immunized with 1-2 μg of the human mAb 16/6Id and boosted 3 weeks later. For the prevention of experimental SLE, mice were given hCDR1 or hCDR3 (mCDR1 or revmCDR1 as control peptide in Example 12) intravenously (i.v.) or s.c. concomitant with the immunization, and were injected weekly thereafter for 5 weeks. Treatment of an established disease started three and a half months following disease induction with the 16/6Id, when clinical manifestations were already observed. In Example 12, mice received 10 weekly injections (i.v. or s.c.) of mCDR1 or revmCDR1 at a dose of 100 μg/mouse. Prevention and treatment of SLE-like disease in (NZB×NZW)F1 mice with the hCDR1 or mCDR1 peptide. For prevention of SLE, mice at the age of 2 months, before disease manifestations are observed, were injected s.c. with hCDR1 (or mCDR1 in Example 12, 250 μg/mouse) once a week for 10 weeks. To treat an established disease, mice at the age of 5-7 months were injected with hCDR1 (in Example 12, mCDR1 s.c., 250 μg/mouse) once a week for 10 weeks. Proliferative Responses. PBL were isolated from heparinized venous blood by Ficoll-Hypaque (Pharmacia) density-gradient centrifugation. All assays were performed, in triplicate, in flat-bottomed microtiter plates (Falcon, Becton Dickinson, Oxmard, Calif., USA) in which 2×10^5 PBL were cultured in enriched RPMI-1640 as described (Dayan et al., 2000). The PBL were exposed to various concentrations (0.1-40 μg/well) of the human anti-DNA 16/6Id mAb with and without the addition of the various CDR-based peptides at a concentration of at least 10-fold excess over that of the 16/6Id. Phytohemagglutinin (PHA; 2 μg/well) was used as a control for culture conditions at each experiment. The cultures were incubated in 7.5% CO2 at 37° C. for 6 days. Eighteen hours before the cells were harvested, [^3H]-thymidine (0.5μ Ci of 5 Ci/mmol) (Nuclear Research Center, Negev, Israel) was added to all cultures. Results are expressed as the mean thymidine incorporation in counts per minute (CPM) of triplicate culture±SD, or as stimulation index (S.I.; the ratio of mean CPM at the optimal concentration of the human 16/6Id to the mean CPM in the presence of medium alone). A S.I.≧2 was considered a positive response (Dayan et al., 2000). Inhibition (the ratio of mean CPM in the presence of the 16/6Id and various CDR-based peptides to the mean CPM with the 16/6Id without the CDR-based peptide) above 50% was considered positive. Induction of Cytokine Production. Mice that were immunized with the human 16/6Id mAb and either treated or not with the CDR-based peptide, were killed at different periods during or after treatment with the peptide. Splenocytes and lymph node cells (LNC) were harvested and incubated (5×10^6/ml) in the presence of the 16/6Id. Supernatants were collected after 48 and 72 h. Assessment of Cytokines in the Supernatants. Supernatants were collected 48 hours following the initiation of the cultures and stored at −70° C. Measurements of IL-2, IL-10, IFN-γ, and TNF-α were performed by ELISA by using the relevant standards, capture and detecting Abs (Pharmingen) according to the manufacturer's instructions. TGF-β was determined by an ELISA. Briefly, plates were coated with the recombinant human TGF-β1 sRIII/Fc chimera (R & D Systems Inc., Minneapolis, Minn., USA), and the second Ab used was the biotinylated anti-human TGF-β1 antibody (R & D Systems Inc.). The substrate solution used was TMB color Reagent (Helix Diagnostics, West Sacramento, Calif.), and enzyme activity was evaluated by using 570- and 630-nm filters. Detection of SLE-Associated Clinical and Pathological Manifestations. Proteinuria was measured semiquantitatively by using Combistix kit (Ames Division, Bayer Diagnostics, Newbury, U.K.). White blood cells (WBC, for leukopenia) were counted after a 10-fold dilution of heparinized blood in distilled water containing 1% acetic acid (vol/vol). […]

PBL of SLE patients [2] = experiment: IL-2 secretion by PBL of SLE patients stimulated with the human 16/6Id mAb (CTLL line); conditions: for patients whose PBL IL-2 secretion was inhibited: 23 responders stimulated by the human 16/6Id; for Maximum inhibition % (IL-2 secretion): PBL of 23 responders; for Maximum inhibition % (IL-2 secretion) / Inhibitory Activity* % (IL-2 secretion): IL-2 secretion with 16/6 Id alone = 100%; for inhibition of the IL-2 secretion by PBL: PBL of one SLE patient, FIG. 8; for Inhibitory Activity* % (IL-2 secretion): share of 23 responders with inhibition of 50% or more
Method: It was of interest to find out whether the hCDR peptides are capable of inhibiting IL-2 secretion by PBL of SLE patients following stimulation with the human 16/6Id mAb. […] To this end, PBL of SLE patients were incubated with the human 16/6Id mAb in the absence or presence of the peptides hCDR1 or hCDR3. Supernatants of the cultures were collected following 48 hours of incubation. Assays to determine levels of IL-2 in the supernatants were performed using the CTLL IL-2 dependent line. Briefly, cells of the CTLL line (2×10^4/well) were incubated in the presence of the different supernatants for 24 hours, followed by the addition of ^3H-thymidine for an additional 18-hour incubation period. Cells were then harvested and radioactivity counted using a β-counter. Results were calculated based on recombinant human IL-2 used as a standard. The ability of the peptides to inhibit the IL-2 secretion of PBL of 23 responders stimulated by the human 16/6Id was tested. […] Inhibition of proliferative responses of PBL directly correlated with IL-2 inhibition by the CDR-based peptides.

PBL of SLE patients [3] = experiment: TGF-β secretion by PBL of SLE patients stimulated with the human 16/6Id mAb (ELISA); conditions: for secretion of TGF-β by PBL: one representative SLE patient, FIG. 9; for Maximum Up-regulation % (TGF-β secretion): percent secretion above that with 16/6Id alone (mean 636 ± 25 pg/ml = 100%); for Up-regulation of TGF-β %: share of 19 SLE patients with up-regulation
Method: For this purpose, supernatants were removed from cultures of PBL of various SLE patients following 48 hours incubation with the human 16/6Id mAb in the absence or presence of the peptides hCDR1 or hCDR3. TGF-β was determined by ELISA according to the manufacturer's instructions. Briefly, Maxisorb plates (Nunc) were coated with recombinant human TGFβsRII/Fc chimera (R&D Systems) diluted in PBS (100 ng/ml). After blocking, cell supernatants were added. After 18 hours incubation the detecting biotinylated anti-human TGF-β antibody (R&D Systems) was added. The substrate solution used was the TMB Colour Reagent (Helix Diagnostics) and enzyme activity was evaluated by the MRX ELISA reader using the 570 nm and 630 nm filters.

| Sequence | inhibition of the proliferative responses of PBL to the human 16/6Id mAb (PBL of SLE patients [1]) | inhibition of the proliferative responses of PBL to human 16/6Id mAb (PBL of SLE patients [1]) | Percent Inhibition of proliferation of PBL (PBL of SLE patients [1]; SLE patient 1) [%] | Percent Inhibition of proliferation of PBL (PBL of SLE patients [1]; SLE patient 2 (M. D.)) [%] | Percent Inhibition of proliferation of PBL (PBL of SLE patients [1]; SLE patient 3) [%] | Percent Inhibition of proliferation of PBL (PBL of SLE patients [1]; SLE patient 4) [%] | Percent Inhibition of proliferation of PBL (PBL of SLE patients [1]; SLE patient 5) [%] | Percent Inhibition of proliferation of PBL (PBL of SLE patients [1]; SLE patient 6) [%] | Percent Inhibition of proliferation of PBL (PBL of SLE patients [1]; SLE patient 7) [%] | Percent Inhibition of proliferation of PBL (PBL of SLE patients [1]; SLE patient 8 (S. D.)) [%] | Percent Inhibition of proliferation of PBL (PBL of SLE patients [1]; SLE patient 9) [%] | Percent Inhibition of proliferation of PBL (PBL of SLE patients [1]; SLE patient 10) [%] | Percent Inhibition of proliferation of PBL (PBL of SLE patients [1]; SLE patient 11) [%] | Percent Inhibition of proliferation of PBL (PBL of SLE patients [1]; SLE patient 12) [%] | Percent Inhibition of proliferation of PBL (PBL of SLE patients [1]; SLE patient 13) [%] | Percent Inhibition of proliferation of PBL (PBL of SLE patients [1]; SLE patient 14) [%] | Percent Inhibition of proliferation of PBL (PBL of SLE patients [1]; SLE patient 15) [%] | Percent Inhibition of proliferation of PBL (PBL of SLE patients [1]; SLE patient 16) [%] | Percent Inhibition of proliferation of PBL (PBL of SLE patients [1]; SLE patient 17) [%] | Percent Inhibition of proliferation of PBL (PBL of SLE patients [1]; SLE patient 18) [%] | further results |
| --- | --- | --- | --- | --- | --- | --- | --- | --- | --- | --- | --- | --- | --- | --- | --- | --- | --- | --- | --- | --- | --- |
| GYYWSWIRQPPGKGEEWIG (Human) [hCDR1, 19-mer peptide based on the CDR1 of the heavy chain of the human 16/6Id mAb] | inhibited efficiently | did inhibit efficiently | 62 | 70 | 69 | <50 | 88.5 | 80 | 76 | 58 | 69.5 | 68.2 | <50 | 82 | 63 | 56 | 63 | <50 | 70.5 | 51.5 | Percent Inhibition of proliferation of PBL (PBL of SLE patients [1]; SLE patient 19): 63%; Percent Inhibition of proliferation of PBL, Mean ± SD (PBL of SLE patients [1]): 68.12 ± 9.57%; responders whose PBL proliferation was inhibited (inhibition above 50% considered positive) (PBL of SLE patients [1]): 84.2%; patients whose PBL IL-2 secretion was inhibited (PBL of SLE patients [2]): 21/23; Maximum inhibition % (IL-2 secretion) (PBL of SLE patients [2]): 84 ± 31%; inhibition of the IL-2 secretion by PBL (PBL of SLE patients [2]): 100%; Inhibitory Activity* % (IL-2 secretion) (PBL of SLE patients [2]): 91 (21/23) %; secretion of TGF-β by PBL (PBL of SLE patients [3]): significant up-regulation; Maximum Up-regulation % (TGF-β secretion) (PBL of SLE patients [3]): 305 ± 221%; Up-regulation of TGF-β % (PBL of SLE patients [3]): 100 (19/19) % |
| YYCARGLLRGGWNDVDYYGMDV (Human) [hCDR3, peptide based on the CDR3 of the heavy chain of the human 16/6Id mAb] | inhibited efficiently | did inhibit efficiently | <50 | 75 | <50 | <50 | 87.5 | 80 | 70.4 | 56 | 65 | 71.8 | 72 | 86 | 64 | 74 | 69 | 68 | 77.8 | <50 | Percent Inhibition of proliferation of PBL (PBL of SLE patients [1]; SLE patient 19): 60.8%; Percent Inhibition of proliferation of PBL, Mean ± SD (PBL of SLE patients [1]): 71.82 ± 8.44%; responders whose PBL proliferation was inhibited (inhibition above 50% considered positive) (PBL of SLE patients [1]): 78.9%; patients whose PBL IL-2 secretion was inhibited (PBL of SLE patients [2]): 19/23; Maximum inhibition % (IL-2 secretion) (PBL of SLE patients [2]): 78 ± 34%; inhibition of the IL-2 secretion by PBL (PBL of SLE patients [2]): 100%; Inhibitory Activity* % (IL-2 secretion) (PBL of SLE patients [2]): 83 (19/23) %; secretion of TGF-β by PBL (PBL of SLE patients [3]): significant up-regulation; Maximum Up-regulation % (TGF-β secretion) (PBL of SLE patients [3]): 338 ± 242%; Up-regulation of TGF-β % (PBL of SLE patients [3]): 100 (19/19) % |
